Experimental data from patent publication US20080299566A1, “Methylation of Gene Promoters as a Predictor of Effectiveness of Therapy” (priority 2006, published 2008).

Assays:
EAC cell line OE33 = test: 5AzaC treatment of EAC cell line OE33; qMSP and real-time RT-PCR for Reprimo; assay type: cell-based; details: 1 μl of 5 mM 5AzaC per ml of cells every 24 hours for 6 days, harvested day 0, 2, 4, 6
Procedure: (§1) DNA methylation of Reprimo was determined by qMSP using the ABI 7700 Taqman system (Eads C. A. et al., (2001)). MSP distinguishes methylated alleles of a given gene based on DNA sequence alterations after bisulfite treatment of DNA. Bisulfite treatment converts unmethylated but not methylated cytosines to uracils. Subsequent PCR using primers and probe specific to the corresponding methylated DNA sequence is then performed. (Eads C. A. et al., (2001)).
(§2) The normalized MSP value (NMV) was calculated by dividing the ratio of the qMSP value for Reprimo to β-actin for each sample by the ratio of the qMSP value for Reprimo to, β-actin for Universal Methylated DNA (See Sato F. et al., Cancer Res., 62:6820-6822 (2002) and Shibata, D. M., et al., Cancer Res., 62:5637-5640 (2002)). Qualitative MSP status was determined by analyzing the normalized MSP value. A normalized MSP value of 0.05 was assigned as the cutoff point for classifying methylation status as qualitatively positive (≧0.05) or negative (<0.05). This cutoff point had been previously determined by ROC curve analysis (See Shibata, D. M., et al., (2002)).
(§3) This treatment protocol has been published previously (Shibata, D. M., et al., Cancer Res., 62:5637-5640 (2002)). […]

ESCC cell line KYSE 110 = test: 5AzaC treatment of ESCC cell line KYSE 110; qMSP and real-time RT-PCR for Reprimo; assay type: cell-based; details: 1 μl of 5 mM 5AzaC per ml of cells every 24 hours for 6 days, harvested day 0, 2, 4, 6
Procedure: as §1, §2, §3

For Nc1ncn([C@H]2C[C@H](O)[C@@H](CO)O2)c(=O)n1 [5AzaC, 5-Aza-2′-Deoxycytidine], the “Reprimo mRNA expression” value (EAC cell line OE33) was “increased Reprimo mRNA expression”, the “Reprimo methylation (qMSP)” value (EAC cell line OE33) was “reduction in Reprimo methylation” and the “Reprimo mRNA expression” value (ESCC cell line KYSE 110) was “increased Reprimo mRNA expression”. For the same compound, the “Reprimo methylation (qMSP)” value (ESCC cell line KYSE 110) was “reduction in Reprimo methylation”.
